These compounds were tested against T1, hQ23 (HEK-293 cell line stably transfected with one of the members of the KCNQ family) (Homo sapiens, UniProt O43525+O43526) (assay: Thallium flux assay for KCNQ channel blockers (FLIPR, BTC dye)). Conditions: Table 2; thallium flux, HEK-293.
T1 construct: expressed in transfected cells; host or cells: HEK-293, stably transfected
T1 sequence (O43526 whole entry): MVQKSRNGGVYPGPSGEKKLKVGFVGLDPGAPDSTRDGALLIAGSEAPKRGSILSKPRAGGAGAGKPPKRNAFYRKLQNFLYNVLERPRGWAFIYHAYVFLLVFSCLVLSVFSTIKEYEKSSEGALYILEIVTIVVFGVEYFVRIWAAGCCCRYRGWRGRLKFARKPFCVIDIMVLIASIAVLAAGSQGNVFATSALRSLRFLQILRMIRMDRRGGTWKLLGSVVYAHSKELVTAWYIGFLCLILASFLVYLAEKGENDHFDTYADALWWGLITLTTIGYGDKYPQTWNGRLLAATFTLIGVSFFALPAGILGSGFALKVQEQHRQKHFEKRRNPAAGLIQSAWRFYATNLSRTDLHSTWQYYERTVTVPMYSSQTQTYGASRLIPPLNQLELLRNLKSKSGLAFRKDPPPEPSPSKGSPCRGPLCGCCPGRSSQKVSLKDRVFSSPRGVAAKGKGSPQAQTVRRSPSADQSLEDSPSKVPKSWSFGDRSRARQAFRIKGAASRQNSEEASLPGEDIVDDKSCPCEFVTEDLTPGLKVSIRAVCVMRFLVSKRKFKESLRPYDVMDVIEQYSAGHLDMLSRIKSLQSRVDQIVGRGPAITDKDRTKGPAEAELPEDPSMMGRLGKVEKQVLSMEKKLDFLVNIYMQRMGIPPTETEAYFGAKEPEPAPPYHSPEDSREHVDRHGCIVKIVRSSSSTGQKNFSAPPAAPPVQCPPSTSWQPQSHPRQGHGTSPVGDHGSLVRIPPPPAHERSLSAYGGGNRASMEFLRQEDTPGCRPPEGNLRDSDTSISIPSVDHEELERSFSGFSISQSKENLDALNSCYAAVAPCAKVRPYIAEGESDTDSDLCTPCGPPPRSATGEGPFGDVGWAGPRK
T1 sequence (O43525 whole entry): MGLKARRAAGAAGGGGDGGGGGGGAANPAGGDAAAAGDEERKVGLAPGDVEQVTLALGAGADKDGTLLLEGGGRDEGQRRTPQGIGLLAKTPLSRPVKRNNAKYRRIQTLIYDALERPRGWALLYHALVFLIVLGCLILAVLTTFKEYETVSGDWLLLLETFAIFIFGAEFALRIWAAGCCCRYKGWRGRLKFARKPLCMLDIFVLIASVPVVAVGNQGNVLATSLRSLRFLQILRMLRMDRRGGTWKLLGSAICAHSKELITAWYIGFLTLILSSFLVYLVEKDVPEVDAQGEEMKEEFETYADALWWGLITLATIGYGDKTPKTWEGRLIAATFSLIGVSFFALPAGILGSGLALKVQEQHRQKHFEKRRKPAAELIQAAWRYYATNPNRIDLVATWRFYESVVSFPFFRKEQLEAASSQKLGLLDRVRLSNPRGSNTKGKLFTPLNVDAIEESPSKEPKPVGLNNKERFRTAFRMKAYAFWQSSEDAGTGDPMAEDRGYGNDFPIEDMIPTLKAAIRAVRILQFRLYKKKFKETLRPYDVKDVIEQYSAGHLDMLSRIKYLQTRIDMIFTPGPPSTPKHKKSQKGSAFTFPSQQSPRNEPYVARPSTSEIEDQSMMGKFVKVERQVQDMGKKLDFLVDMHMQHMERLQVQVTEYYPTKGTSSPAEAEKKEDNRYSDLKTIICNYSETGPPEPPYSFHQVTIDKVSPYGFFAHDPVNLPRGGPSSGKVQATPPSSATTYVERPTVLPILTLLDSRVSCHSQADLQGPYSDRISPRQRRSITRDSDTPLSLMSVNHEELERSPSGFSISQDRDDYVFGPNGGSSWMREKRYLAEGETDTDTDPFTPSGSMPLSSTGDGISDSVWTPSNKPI
Assay type: cell-based
Outline: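 HEK-293 cells stably expressing a KCNQ member, loaded with BTC-AM (2 μM) in chloride-free buffer, pH 7.3; compounds added at 1% DMSO, then Tl2SO4 stimulus on FLIPR (488/540 nm, 60 s). Minimal active concentration set at ≥4 SD above negative control; IC50 from 10-point 1:3 series, single-site logistic fit versus the positive-control blocker.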
CC1CCCN(c2ncc(C(=O)N3CCc4ccccc4C3)c(C3(c4ccccc4)CC3)n2)C1 (stereo not drawn) [Example 25, isoquinoline, 1,2,3,4-tetrahydro-2-[[2-(3-methyl-1-piperidinyl)-4-(1-phenylcyclopropyl)-5-pyrimidinyl]carbonyl]-] gave an EC50 of 945 nM. Work on CC1CCCN(c2ncc(C(=O)NCc3ccc(Cl)cc3Cl)c(C3(c4ccccc4)CC3)n2)C1 (stereo not drawn) [Example 40, 5-pyrimidinecarboxamide, N-[(2,4-dichlorophenyl)methyl]-2-(3-methyl-1-piperidinyl)-4-(1-phenylcyclopropyl)-] yielded an EC50 of 326 nM.

Same assay, conditions: Table 3; thallium flux, HEK-293
CC1CCN(c2ncc(C(=O)NCc3ccc(Cl)cc3Cl)c(C3(c4ccc(Cl)cc4)CCC3)n2)CC1 [Example 64, 5-pyrimidinecarboxamide, 4-[1-(4-chlorophenyl)cyclobutyl]-N-[(2,4-dichlorophenyl)methyl]-2-(4-methyl-1-piperidinyl)-] showed an EC50 of 34 nM.

Same assay, conditions: hQ23 cells, thallium flux
CCN(C(=O)c1cnc(N2CCCC(C)C2)nc1C1(c2ccc(F)cc2)CCCC1)C1CCCCC1 (stereo not drawn) [Example 214, 5-pyrimidinecarboxamide, N-cyclohexyl-N-ethyl-4-[1-(4-fluorophenyl)cyclopentyl]-2-(3-methyl-1-piperidinyl)-] was tested, and the EC50 was 575 nM. With CC1CCCN(c2ncc(C(=O)NCc3ccc(Cl)c(Cl)c3)c(C3(c4ccccc4)CCCC3)n2)C1 (stereo not drawn) [Example 107, 5-pyrimidinecarboxamide, N-[(3,4-dichlorophenyl)methyl]-2-(3-methyl-1-piperidinyl)-4-(1-phenylcyclopentyl)-] the EC50 was 111 nM. In the case of CC1CCN(c2ncc(C(=O)N(C)CCc3ccccc3)c(C3(c4ccccc4)CCCC3)n2)CC1 [Example 81, 5-pyrimidinecarboxamide, N-methyl-2-(4-methyl-1-piperidinyl)-4-(1-phenylcyclopentyl)-N-(2-phenylethyl)-], the EC50 is reported as 437 nM. In the case of CC1CCCN(C(=O)c2cnc(NC3CC3)nc2C2(c3ccc(Cl)cc3)CCCC2)C1 (stereo not drawn) [Example 144, piperidine, 1-[[4-[1-(4-chlorophenyl)cyclopentyl]-2-(cyclopropylamino)-5-pyrimidinyl]carbonyl]-3-methyl-], the EC50 is reported as 884 nM. Compound CCN(C)C(=O)c1cnc(N2CCC(C)CC2)nc1C1(c2ccc(F)cc2)CCCC1 [Example 227, 5-pyrimidinecarboxamide, N-ethyl-4-[1-(4-fluorophenyl)cyclopentyl]-N-methyl-2-(4-methyl-1-piperidinyl)-] has an EC50 of 882 nM. In the case of CC1CCC(Nc2ncc(C(=O)NCc3cccc4ccccc34)c(C3(c4ccc(Cl)cc4)CCCC3)n2)CC1 (stereo not drawn) [Example 166, 5-pyrimidinecarboxamide, 4-[1-(4-chlorophenyl)cyclopentyl]-2-[(4-methylcyclohexyl)amino]-N-(1-naphthalenylmethyl)-], the EC50 is reported as 16 nM. With CCN(Cc1ccccc1)C(=O)c1cnc(N2CCC(C)CC2)nc1C1(c2ccc(F)cc2)CCCC1 [Example 230, 5-pyrimidinecarboxamide, N-ethyl-4-[1-(4-fluorophenyl)cyclopentyl]-2-(4-methyl-1-piperidinyl)-N-(phenylmethyl)-] the EC50 was 168 nM. Work on CCN(Cc1ccccc1)C(=O)c1cnc(N2CCCC(C)C2)nc1C1(c2ccccc2)CCCC1 (stereo not drawn) [Example 85, 5-pyrimidinecarboxamide, N-ethyl-2-(3-methyl-1-piperidinyl)-4-(1-phenylcyclopentyl)-N-(phenylmethyl)-] yielded an EC50 of 161 nM. O=C(NCc1cc(F)cc(C(F)(F)F)c1)c1cnc(NC2CC2)nc1C1(c2ccccc2)CCCC1 [Example 122, 5-pyrimidinecarboxamide, 2-(cyclopropylamino)-N-[[3-fluoro-5-(trifluoromethyl)phenyl]methyl]-4-(1-phenylcyclopentyl)-] showed an EC50 of 10 nM. In the case of CC1CCCN(c2ncc(C(=O)N(C(C)C)C(C)C)c(C3(c4ccccc4)CCCC3)n2)C1 (stereo not drawn) [Example 82, 5-pyrimidinecarboxamide,N,N-bis(1-methylethyl)-2-(3-methyl-1-piperidinyl)-4-(1-phenylcyclopentyl)-], the EC50 is reported as 285 nM. CN1CCC(N(C)c2ncc(C(=O)NCc3cc(F)cc(C(F)(F)F)c3)c(C3(c4ccc(Cl)cc4)CCCC3)n2)CC1 [Example 194, 5-pyrimidinecarboxamide, 4-[1-(4-chlorophenyl)cyclopentyl]-N-[[3-fluoro-5-(trifluoromethyl)phenyl]methyl]-2-[methyl(1-methyl-4-piperidinyl)amino]-] gave an EC50 of 130 nM. With CN(CCc1ccccc1)C(=O)c1cnc(NC2CCCC2)nc1C1(c2ccc(Cl)cc2)CCCC1 [Example 148, 5-pyrimidinecarboxamide, 4-[1-(4-chlorophenyl)cyclopentyl]-2-(cyclopentylamino)-N-methyl-N-(2-phenylethyl)-] the EC50 was 597 nM. With CCC(C)Nc1ncc(C(=O)NC(C)c2ccc(F)cc2)c(C2(c3ccccc3)CCCC2)n1 (stereo not drawn) [Example 135, 5-pyrimidinecarboxamide, N-[1-(4-fluorophenyl)ethyl]-2-[(1-methylpropyl)amino]-4-(1-phenylcyclopentyl)-] the EC50 was 29 nM. For CCN(Cc1ccccc1)C(=O)c1cnc(N2CCCC(C)C2)nc1C1(c2ccc(F)cc2)CCCC1 (stereo not drawn) [Example 229, 5-pyrimidinecarboxamide, N-ethyl-4-[1-(4-fluorophenyl)cyclopentyl]-2-(3-methyl-1-piperidinyl)-N-(phenylmethyl)-], the EC50 was 369 nM.

Same assay, conditions: hQ23 cells, thallium flux assay
CC1CCCN(c2ncc(C(=O)NC(C)c3cccc4ccccc34)c(C3(c4ccc(F)cc4)CCCC3)n2)C1 (stereo not drawn) [Example 244, 5-pyrimidinecarboxamide, 4-[1-(4-fluorophenyl)cyclopentyl]-2-(3-methyl-1-piperidinyl)-N-[1-(1-naphthalenyl)ethyl]-] gave an EC50 of 10 nM. For CC(NC(=O)c1cnc(NC2CCCC2)nc1C1(c2ccc(F)cc2)CCCC1)c1cccc2ccccc12 (stereo not drawn) [Example 247, 5-pyrimidinecarboxamide, 2-(cyclopentylamino)-4-[1-(4-fluorophenyl)cyclopentyl]-N-[1-(1-naphthalenyl)ethyl]-], the EC50 was 92 nM. With CC1CCC(Nc2ncc(C(=O)NC(C)c3ccc(F)cc3)c(C3(c4ccc(F)cc4)CCCC3)n2)CC1 (stereo not drawn) [Example 281, 5-pyrimidinecarboxamide, 4-[1-(4-fluorophenyl)cyclopentyl]-N-[1-(4-fluorophenyl)ethyl]-2-[(4-methylcyclohexyl)amino]-] the EC50 was 118 nM. CCC(C)Nc1ncc(C(=O)NCc2cccc3ccccc23)c(C2(c3ccc(F)cc3)CCCC2)n1 (stereo not drawn) [Example 252, 5-pyrimidinecarboxamide, 4-[1-(4-fluorophenyl)cyclopentyl]-2-[(1-methylpropyl)amino]-N-(1-naphthalenylmethyl)-] was tested, and the EC50 was 350 nM. CN1CCN(c2ncc(C(=O)NCc3cc(F)cc(C(F)(F)F)c3)c(C3(c4ccc(F)cc4)CCCC3)n2)CC1 [Example 276, 5-pyrimidinecarboxamide, 4-[1-(4-fluorophenyl)cyclopentyl]-N-[[3-fluoro-5-(trifluoromethyl)phenyl]methyl]-2-(4-methyl-1-piperazinyl)-] was tested, and the EC50 was 327 nM. CC1CCCN(c2ncc(C(=O)NCc3ccc(Cl)cc3Cl)c(C3(c4ccc(F)cc4)CCCC3)n2)C1 (stereo not drawn) [Example 262, 5-pyrimidinecarboxamide, N-[(2,4-dichlorophenyl)methyl]-4-[1-(4-fluorophenyl)cyclopentyl]-2-(3-methyl-1-piperidinyl)-] showed an EC50 of 10 nM. CN1CCC(N(C)c2ncc(C(=O)NCc3ccc(F)cc3F)c(C3(c4ccc(F)cc4)CCCC3)n2)CC1 [Example 271, 5-pyrimidinecarboxamide, N-[(2,4-difluorophenyl)methyl]-4-[1-(4-fluorophenyl)cyclopentyl]-2-[methyl(1-methyl-4-piperidinyl)amino]-] showed an EC50 of 532 nM.

Source: patent US7091202B2, “4-arylspirocycloalkyl-2-aminopyrimidine carboxamide KCNQ potassium channel modulators” (Bristol-Myers Squibb Company, priority 2004, dated 2006)
